Data as given in patent US20140148498A1, “METHODS AND COMPOSITIONS FOR THE TREATMENT OF MARFAN SYNDROME AND ASSOCIATED DISORDERS” (THE JOHNS HOPKINS UNIVERSITY, priority 2011, published 2014).
Entries after “also recorded” stand apart in the source; their conditions may differ.

Columns and labels:
AT2KO:Fbn1^C1039G/+ mice = test: Aortic root growth by echocardiography, 7 months of treatment, MFS mice lacking AT2; assay type: in vivo
Description: A head-to-head comparison of ACEi versus ARBs was performed. Fbn1^C1039G/+ mice and WT littermates were treated with hemodynamically equivalent doses (FIG. 8) of either the ACEi enalapril (10 to 15 mg/kg of body weight per day) or the ARB losartan (40 to 60 mg/kg per day) (R. D. Patten et al., Clin. Sci 104, 109 (2003)), beginning at 8 weeks of age, and were assessed with serial echocardiograms. […] It is noteworthy that losartan reduced aortic root growth in Fbn1^C1039G/+ mice, but had no effect in WT littermates (P=0.27). […] Whether AT2 signaling is needed to achieve losartan's full therapeutic benefit was assessed. AT2KO:Fbn1^C1039G/+ mice were treated with losartan from 8 weeks of age and followed by serial echocardiography until they were killed at 9 months of age (FIG. 2C).
All mice were cared for under strict compliance with the Animal Care and Use Committee of the Johns Hopkins University School of Medicine. The Fbn1^C1039G/+ and AT2KO lines were maintained n a pure C57BL/6 background (backcrossed for greater than 9 generations), allowing for valid comparisons. […] Mice that were analyzed for Western Blot analysis had their proximal ascending aortas (root to right brachiocephalic trunk) immediately dissected out, flash frozen in liquid nitrogen and stored at −80d until further processing. Mice that were analyzed for aortic histology had latex injected under low pressure into the left ventricular apex until it was visible in the descending abdominal aorta. Mice that were analyzed for lung histology had their trachea intubated with a 20-gauge blunted needle, and 0.5% agar was infused under a low and constant pressure to gradually inflate the lungs. […]
Mice were started on medication at 8 weeks of age and continued for 7 months. […] Blood pressures were analyzed by taking 20 tail cuff blood pressures per day over 5 days in each mouse to habituate the mice to the tail cuff pressure system, and the blood pressures obtained on the last day were averaged. At least 4 mice for each treatment group were analyzed. […]

Fbn1^C1039G/+ mice = test: Systolic blood pressure by tail cuff; assay type: in vivo; details: compared to placebo-treated animals, FIG. 8
Description: Mice were started on medication at 8 weeks of age and continued for 7 months. Losartan was dissolved in drinking water and filtered to reach a concentration of 0.6 g/L, giving an estimated daily dose of 40-60 mg/kg/day. Enalapril was dissolved in drinking water and filtered to reach a final concentration of 0.15 g/L, giving an estimated daily dose of 10-15 mg/kg/day. […] Spironolactone was dissolved in drinking water and filtered to give an estimated dose of 20 mg/kg/day, a dose previously shown to have in-vivo phenotypic benefit in cardiovascular disease states (S. Sakurabayashi-Kitade et al., Atherosclerosis 206, 54 (2009)). Placebo-treated animals received regular drinking water. Blood pressures were analyzed by taking 20 tail cuff blood pressures per day over 5 days in each mouse to habituate the mice to the tail cuff pressure system, and the blood pressures obtained on the last day were averaged. At least 4 mice for each treatment group were analyzed.

p38 = test: Western blot of proximal ascending aorta: p38 activation (Examples 4-5); assay type: in vivo, mice
Text: All mice were cared for under strict compliance with the Animal Care and Use Committee of the Johns Hopkins University School of Medicine. The Fbn1^C1039G/+ and AT2KO lines were maintained n a pure C57BL/6 background (backcrossed for greater than 9 generations), allowing for valid comparisons. In order to further accommodate the potential for temporal- or background-specified variation, all comparisons were made between contemporary littermates when possible. The AT21C0 mice were obtained as a generous gift from Dr. Inagami (T. Ichiki et al., Nature 377, 748 (1995)). The Agtr2 gene resides on the X chromosome and therefore we used either male mice carrying the mutated allele (who are hemizygous) or homozygous females, both of which have been previously shown to be functionally null for the AT2 receptor (T. Ichiki et al., Nature 377, 748 (1995)). Mice were sacrificed with an inhalation overdose of halothane (Sigma-Aldrich, St. Louis). Mice underwent immediate laparotomy, descending abdominal aortic transection, and PBS (pH 7.4) was infused through the right and left ventricles to flush out the blood. Mice that were analyzed for Western Blot analysis had their proximal ascending aortas (root to right brachiocephalic trunk) immediately dissected out, flash frozen in liquid nitrogen and stored at −80d until further processing. Mice that were analyzed for aortic histology had latex injected under low pressure into the left ventricular apex until it was visible in the descending abdominal aorta. Mice that were analyzed for lung histology had their trachea intubated with a 20-gauge blunted needle, and 0.5% agar was infused under a low and constant pressure to gradually inflate the lungs. […]
Mouse aortic root and ascending aortas (aortic root excluding the aortic valve to origin of right brachiocephalic trunk) were harvested, snap-frozen in liquid nitrogen and stored at −80° C. until processed. […] Equal protein loading of samples was determined by a protein assay (BioRad, CA), and confirmed by probing with antibodies against β-Actin or GAPDH (Sigma, Mo.). […]

With `CCCCc1nc(Cl)c(CO)n1Cc1ccc(-c2ccccc2-c2nn[nH]n2)cc1` [losartan] the “Aortic root growth over 7 months of treatment” value (AT2KO:Fbn1^C1039G/+ mice; AT2KO:Fbn1^C1039G/+ mice) was “modest reduction in aortic root growth; also recorded: diminished effectiveness”, the “Final absolute aortic root diameter” value (AT2KO:Fbn1^C1039G/+ mice; AT2KO:Fbn1^C1039G/+ mice, 7 months of treatment, FIG. 2C, mean +/- 2 SEM) was 2.06+/−0.07 mm and the “Decrease in aortic root growth in treated AT2KO:Fbn1^C1039G/+ mice relative to that seen in Fbn1^C1039G/+ animals that expressed AT2” value (AT2KO:Fbn1^C1039G/+ mice; losartan from 8 weeks to 9 months of age, P<0.001) was 40%. The Systolic blood pressure (Fbn1^C1039G/+ mice) was “equal reduction in systolic blood pressure”, the p38 activation (p38; Fbn1^C1039G/+ mice, FIG. 13) was “do not affect p38 activation; also recorded: neither had any effect” and the p38 activation (p38; treated AT2KO:Fbn1^C1039G/+ versus treated Fbn1^C1039G/+ mice, FIG. 14) was “no significant change; also recorded: no significant difference”.
